# From ChEMBL document CHEMBL5390269, “Synthesis, anti-inflammatory activity, and conformational relationship studies of chromone derivatives incorporating amide groups” (Bioorg Med Chem Lett, 2023)
# System: not listed separately
# Test: Cytotoxicity against mouse RAW264.7 cells assessed as cell growth inhibition by CCK-8 colorimetric assay
# Assay type: toxicity, cell-based
row,SMILES,IC50
1,COc1cccc2oc(C(=O)Nc3cc(Cl)ccc3C)cc(=O)c12,48 µM
2,COc1ccc2c(=O)cc(C(=O)Nc3ccccc3C)oc2c1,813 µM
3,COc1cc(OC)c2c(=O)cc(C(=O)Nc3ccc(C)c(Cl)c3)oc2c1,48 µM
4,O=C(Nc1ccc(Br)cc1)c1cc(=O)c2ccccc2o1,24.3 µM
5,O=C(Nc1ccc(C(F)(F)F)cc1)c1cc(=O)c2ccc(Br)cc2o1,324 µM
6,CC(C)Cc1ccc(C(C)C(=O)O)cc1 (stereo unspecified) [IBUPROFEN],> 1000 µM
7,Cc1ccc2oc(C(=O)Nc3cc(Cl)ccc3C)cc(=O)c2c1,38.4 µM

# System: RAW264.7
# Test: Anti-inflammatory activity in mouse RAW264.7 cells assessed as inhibition of LPS-stimulated NO production
# Assay type: functional, cell-based
row,SMILES,EC50
1,Cc1ccc2oc(C(=O)Nc3ccc(C)c(Cl)c3)cc(=O)c2c1,80 µM
2,COc1ccc2c(=O)cc(C(=O)Nc3ccccc3C)oc2c1,5.33 µM
3,COc1ccc2c(=O)cc(C(=O)Nc3ccc(Br)cc3)oc2c1,89.5 µM
4,O=C(Nc1ccc(Br)cc1)c1cc(=O)c2ccccc2o1,41 µM
5,Cc1ccc2oc(C(=O)Nc3ccc(Cl)c(C(F)(F)F)c3)cc(=O)c2c1,40.7 µM
6,COc1cccc2oc(C(=O)Nc3ccc(C(F)(F)F)cc3)cc(=O)c12,175 µM
7,COc1ccc(NC(=O)c2cc(=O)c3ccc(Br)cc3o2)cc1,174 µM
8,CCOc1ccc(NC(=O)c2cc(=O)c3ccccc3o2)cc1,> 1000 µM
9,O=C(Nc1ccc(Br)cc1)c1cc(=O)c2ccc(Br)cc2o1,50 µM
10,O=C(Nc1ccc(C(F)(F)F)cc1)c1cc(=O)c2ccc(Br)cc2o1,167 µM
11,Cc1ccc(NC(=O)c2cc(=O)c3ccccc3o2)cc1C,31.7 µM
12,Cc1ccc(NC(=O)c2cc(=O)c3ccccc3o2)cc1Cl,30.1 µM
13,CC(C)Cc1ccc(C(C)C(=O)O)cc1 (stereo unspecified) [IBUPROFEN],26.7 µM
14,Cc1ccc2oc(C(=O)Nc3cc(Cl)ccc3C)cc(=O)c2c1,40.5 µM
15,COc1cccc2oc(C(=O)Nc3ccc(Br)cc3)cc(=O)c12,378 µM
16,Cc1ccc2oc(C(=O)Nc3ccc(F)c(F)c3)cc(=O)c2c1,41 µM
17,Cc1ccc(NC(=O)c2cc(=O)c3ccc(Br)cc3o2)cc1Cl,37.9 µM
18,COc1ccc(NC(=O)c2cc(=O)c3ccccc3o2)cc1,42.1 µM
19,O=C(Nc1ccc(C(F)(F)F)cc1)c1cc(=O)c2ccccc2o1,> 1000 µM
20,Cc1ccc(NC(=O)c2cc(=O)c3ccc(Br)cc3o2)cc1C,821 µM
21,O=C(Nc1ccc(F)c(F)c1)c1cc(=O)c2ccccc2o1,91.8 µM
22,O=C(Nc1ccc(F)c(F)c1)c1cc(=O)c2ccc(Br)cc2o1,138 µM
23,Cc1ccc(Cl)cc1NC(=O)c1cc(=O)c2ccccc2o1,45.3 µM

# More lines, now with the values ahead:
row,EC50,SMILES
1,11.1 µM,COc1ccc2c(=O)cc(C(=O)Nc3ccc(Cl)c(F)c3)oc2c1
2,115 µM,COc1cc(OC)c2c(=O)cc(C(=O)Nc3ccc(C)c(Cl)c3)oc2c1
3,45.2 µM,COc1ccc2c(=O)cc(C(=O)Nc3ccc(C)c(Cl)c3)oc2c1
4,18.7 µM,COc1cc(OC)c2c(=O)cc(C(=O)Nc3cc(Cl)ccc3C)oc2c1
5,448 µM,COc1cccc2oc(C(=O)Nc3ccc(Cl)c(C(F)(F)F)c3)cc(=O)c12
6,191 µM,COc1ccc(NC(=O)c2cc(=O)c3c(OC)cccc3o2)cc1
7,32.3 µM,COc1cc(OC)c2c(=O)cc(C(=O)Nc3ccc(Cl)c(Cl)c3)oc2c1
8,208 µM,COc1cccc2oc(C(=O)Nc3ccc(F)c(F)c3)cc(=O)c12
9,82 µM,COc1ccc2c(=O)cc(C(=O)Nc3ccc(Cl)c(Cl)c3)oc2c1
10,31.7 µM,COc1cc(OC)c2c(=O)cc(C(=O)Nc3ccc(C(F)(F)F)cc3)oc2c1
11,21.3 µM,COc1ccc(NC(=O)c2cc(=O)c3c(OC)cc(OC)cc3o2)cc1
12,86.5 µM,COc1ccc2c(=O)cc(C(=O)Nc3ccc(Cl)c(C(F)(F)F)c3)oc2c1
13,83.7 µM,COc1cccc2oc(C(=O)Nc3ccc(Cl)c(F)c3)cc(=O)c12
14,40.3 µM,Cc1ccc2oc(C(=O)Nc3ccc(Cl)c(Cl)c3)cc(=O)c2c1

# Molecular target: T1, Prostaglandin G/H synthase 2 (Homo sapiens, UniProt P35354)
# T1 sequence (P35354 whole entry): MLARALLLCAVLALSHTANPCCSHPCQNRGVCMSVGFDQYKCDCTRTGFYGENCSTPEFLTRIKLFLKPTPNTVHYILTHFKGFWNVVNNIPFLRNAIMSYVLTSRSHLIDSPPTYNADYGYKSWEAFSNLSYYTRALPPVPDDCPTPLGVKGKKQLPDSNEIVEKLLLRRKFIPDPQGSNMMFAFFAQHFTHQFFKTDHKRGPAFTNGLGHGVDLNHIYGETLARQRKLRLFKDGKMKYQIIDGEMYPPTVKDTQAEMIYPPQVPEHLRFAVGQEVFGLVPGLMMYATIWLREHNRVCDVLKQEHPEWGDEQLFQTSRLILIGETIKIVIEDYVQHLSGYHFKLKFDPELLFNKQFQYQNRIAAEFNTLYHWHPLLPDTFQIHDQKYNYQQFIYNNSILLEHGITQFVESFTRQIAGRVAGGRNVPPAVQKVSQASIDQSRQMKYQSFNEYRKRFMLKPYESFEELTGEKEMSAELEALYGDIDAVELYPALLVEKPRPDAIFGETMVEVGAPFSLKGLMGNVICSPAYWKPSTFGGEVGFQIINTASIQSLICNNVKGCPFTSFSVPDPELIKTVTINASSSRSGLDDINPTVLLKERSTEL
# Test: Inhibition of COX-2 (unknown origin)
row,IC50,SMILES
1,0.02 µM,O=C1Nc2ccccc2/C1=C/c1coc2ccccc2c1=O

# Molecular target: T2, Interleukin-5 (Homo sapiens, UniProt P05113)
# T2 sequence (P05113 whole entry): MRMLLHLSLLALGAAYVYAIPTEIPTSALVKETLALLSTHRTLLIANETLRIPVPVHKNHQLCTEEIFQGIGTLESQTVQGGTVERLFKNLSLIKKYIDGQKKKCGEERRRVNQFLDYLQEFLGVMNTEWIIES
# Test: Inhibition of IL-5 (unknown origin)
row,IC50,SMILES
1,4 µM,O=c1c(CCC(O)c2ccc(O)cc2)coc2cccc(OCC3CCCCC3)c12 (stereo unspecified)
